Measurements reported in patent US7998989B2, “2-Imino-1,3-thiazoline-based compounds and T-type calcium channel inhibitors containing the same” (Korea Institute of Science and Technology, priority 2007, dated 2011).

Tests used:
[1] = target: T1, α1G T-type calcium channel (Homo sapiens, UniProt O43497); assay: Assay for % inhibiting activity against T-type calcium channel using FDSS6000 (fluo-3 calcium imaging, KCl activation); type: cell-based; conditions: 10 μM; HEK293 cells stably expressing α1G T-type calcium channel and Kir2.1; compounds of the examples
T1 construct: host or cells: HEK293
T1 sequence (O43497 whole entry): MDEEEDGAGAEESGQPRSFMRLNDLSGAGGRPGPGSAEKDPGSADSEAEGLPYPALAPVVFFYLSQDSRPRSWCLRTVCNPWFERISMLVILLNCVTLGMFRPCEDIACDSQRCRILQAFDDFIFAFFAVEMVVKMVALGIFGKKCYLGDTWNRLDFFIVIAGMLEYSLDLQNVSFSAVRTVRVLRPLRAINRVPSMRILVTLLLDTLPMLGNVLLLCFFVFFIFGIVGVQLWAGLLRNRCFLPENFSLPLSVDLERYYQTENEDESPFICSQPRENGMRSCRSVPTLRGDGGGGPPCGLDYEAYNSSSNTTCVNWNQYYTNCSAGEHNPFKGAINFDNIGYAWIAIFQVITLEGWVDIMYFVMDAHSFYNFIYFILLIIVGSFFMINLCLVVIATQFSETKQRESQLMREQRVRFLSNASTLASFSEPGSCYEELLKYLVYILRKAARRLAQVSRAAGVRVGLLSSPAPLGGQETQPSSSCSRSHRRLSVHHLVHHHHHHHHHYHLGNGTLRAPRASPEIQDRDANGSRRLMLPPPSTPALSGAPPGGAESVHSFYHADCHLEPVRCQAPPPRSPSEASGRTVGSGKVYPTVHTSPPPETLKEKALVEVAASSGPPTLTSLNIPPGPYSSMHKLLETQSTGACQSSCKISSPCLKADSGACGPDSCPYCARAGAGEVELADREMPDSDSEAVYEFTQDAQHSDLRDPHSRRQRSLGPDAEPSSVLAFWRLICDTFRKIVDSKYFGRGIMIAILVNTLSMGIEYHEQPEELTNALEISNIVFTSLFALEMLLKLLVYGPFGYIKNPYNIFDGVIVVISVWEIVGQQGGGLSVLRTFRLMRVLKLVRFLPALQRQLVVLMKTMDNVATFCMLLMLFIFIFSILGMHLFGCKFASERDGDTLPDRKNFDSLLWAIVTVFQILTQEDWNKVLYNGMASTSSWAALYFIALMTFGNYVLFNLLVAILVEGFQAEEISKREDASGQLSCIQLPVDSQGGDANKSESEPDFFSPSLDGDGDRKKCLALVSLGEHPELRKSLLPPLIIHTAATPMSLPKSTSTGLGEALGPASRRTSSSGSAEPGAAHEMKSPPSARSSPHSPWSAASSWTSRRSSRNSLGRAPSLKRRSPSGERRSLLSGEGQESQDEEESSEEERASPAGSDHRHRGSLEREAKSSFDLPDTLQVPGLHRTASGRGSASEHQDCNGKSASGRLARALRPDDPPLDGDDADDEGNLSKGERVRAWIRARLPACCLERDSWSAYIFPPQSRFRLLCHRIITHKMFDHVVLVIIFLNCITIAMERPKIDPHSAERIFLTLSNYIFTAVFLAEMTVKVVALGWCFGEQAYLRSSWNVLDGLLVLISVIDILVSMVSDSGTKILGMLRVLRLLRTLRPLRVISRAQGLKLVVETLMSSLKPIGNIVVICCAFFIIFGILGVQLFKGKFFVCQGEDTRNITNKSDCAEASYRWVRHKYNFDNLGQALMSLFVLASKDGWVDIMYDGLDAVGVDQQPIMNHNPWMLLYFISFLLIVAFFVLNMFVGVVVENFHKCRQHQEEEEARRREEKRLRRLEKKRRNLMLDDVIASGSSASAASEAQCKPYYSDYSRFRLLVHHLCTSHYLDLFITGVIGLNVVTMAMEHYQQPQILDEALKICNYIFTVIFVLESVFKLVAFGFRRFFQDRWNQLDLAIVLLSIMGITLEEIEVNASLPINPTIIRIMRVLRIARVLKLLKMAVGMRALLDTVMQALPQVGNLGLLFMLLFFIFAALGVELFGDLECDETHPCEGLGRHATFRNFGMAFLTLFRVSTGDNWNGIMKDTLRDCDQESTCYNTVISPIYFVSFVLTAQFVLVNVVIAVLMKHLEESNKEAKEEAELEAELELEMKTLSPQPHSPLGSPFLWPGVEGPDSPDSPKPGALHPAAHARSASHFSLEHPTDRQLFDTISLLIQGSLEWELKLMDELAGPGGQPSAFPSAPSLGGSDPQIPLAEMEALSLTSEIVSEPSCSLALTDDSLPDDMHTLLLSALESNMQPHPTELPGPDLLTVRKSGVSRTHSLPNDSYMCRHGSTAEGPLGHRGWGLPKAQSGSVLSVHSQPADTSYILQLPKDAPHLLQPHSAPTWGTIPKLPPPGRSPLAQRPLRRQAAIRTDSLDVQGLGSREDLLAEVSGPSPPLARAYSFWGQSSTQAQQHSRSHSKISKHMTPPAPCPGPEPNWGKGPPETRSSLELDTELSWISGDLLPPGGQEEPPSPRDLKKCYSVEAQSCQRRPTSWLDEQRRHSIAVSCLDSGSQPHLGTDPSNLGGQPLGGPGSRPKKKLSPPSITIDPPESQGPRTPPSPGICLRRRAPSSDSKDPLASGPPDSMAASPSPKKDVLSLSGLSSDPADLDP
In short: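 Percent inhibition derived from […] area against untreated control (100%), after 75 s compound pre-exposure and 75 mM KCl activation. Cells: HEK293 with stable α1G plus Kir2.1, fluo-3/AM-labelled (5 μM), assayed in pH 7.4 HEPES containing 10 mM CaCl2.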

[2] = target: T1, α1G T-type calcium channel; assay: Electrophysiological whole cell patch clamp measurement of T-type calcium channel current in HEK293 cells; type: cell-based; conditions: HEK293 cells expressing α1G; for HEK293cell (% Inhibition) 10 μM: inhibition of peak current; for IC50: read-out: IC50 (a1G)
Method: In the present invention, in order to examine an efficient inhibitor against the T-type calcium channel, a primary assay for T-type calcium channel inhibiting activity was conducted by a high-efficient assay using FDSS6000, wherein mammal HEK293 cell lines (originated from human kidney carcinoma cells) that specifically express α1G of the T-type calcium channel was used for primary assay. Through the primary assay, compounds that show meaningful inhibition effects were selected. The selected compounds were used in a second assay for T-type calcium channel inhibiting activity using an electrophysiological whole cell patch clamp method, wherein mammal HEK293 cell lines (originated from human kidney carcinoma cells) that specifically express α1G of the T-type calcium channel was used for the second assay. Mibefradil, which had been developed as a T-type calcium channel inhibitor, was used as a reference.
10% Fetal bovine serum (FBS) and 1% penicillin/streptomycin (v/v) were added to Dulbecco's modified Eagle's medium (DMEM), to be used as a media solution. The cells were cultured in an incubator under a wet condition of 95% air/5% CO2 and a temperature of 36.5° C. The media solution was refreshed every 3 or 4 days, and the cells were sub-cultured every week. Only the cells that expressed α1G T-type calcium channel were cultured using a G-418 (0.5 mg/ml) solution. The recording of the cells used in the T-type calcium channel activity analysis was conducted at 2-7 days after the cells were culturing on a cover slip coated with poly-L-lysine (0.5 mg/ml) when conducting every sub-culture. For analysis at a single cell level, the T-type calcium channel current was measured by an electrophysiological whole cell patch clamp method using EPC-9 amplifier (HEKA, German).
As solutions for analyzing T-type calcium channel activity, a solution including NaCl 140 mM, CaCl2 2 mM, and HEPES10 mM (pH 7.4, Sigma; 4-(2-hydroxyethyl)piperazine-1-ethanesulfonic acid) was used as an extracellular solution, and a solution including KCl 130 mM, HEPES 10 mM (Sigma), EGTA 11 mM (ethylene glycol-bis(2-aminoethylether)-N,N,N′,N′-tetraacetic acid, Sigma), and MgATP 5 mM (pH 7.4, Sigma) was used as an intracellular solution. The protocol for T-type calcium channel activity that is activated at low voltage is as follows. A micro-glass electrode with resistance of 3-4 MΩ wherein the above-prepared intracellular solution was filled was pricked into a single cell, to make a whole-cell recording mode. Thereafter, the cell membrane potential was fixed to −100 mV, and then the inward current due to the T-type calcium channel activity when hypopolarizing to −30 mV (50 ms duration) was measured every 10 seconds.
Each compound to be tested was dissolved in 100% dimethylsulfoxide (DMSO) to make a 10 mM stock solution. The effect of the compound on the T-type calcium channel current compound was initially examined in the stock solution with the 1000-times diluted concentration of 10 μM (containing 0.1% DMSO) and then examined in the solution with the concentration for IC50 measurement (mostly 0.1 to 100 μM), to obtain an IC50 value. More specifically, the cells were treated in each compound together with the extracellular solution for 30 to 60 seconds, and the inhibition level of peak current induced by the compound was calculated as a percentage, to obtain the % inhibition value as shown in Table 4.

| Substance | FDSS (% inhibition)/10uM [1] | HEK293cell (% Inhibition) 10 μM [2] | IC50 [2] |
| --- | --- | --- | --- |
| [2-(1-adamantylimino)-3-n-propyl-1,3-thiazolidine-4-yl]-N-(4-ethylphenyl)-acetamide hydrochloride [KHG24814] | 76.32% | 96.9 ± 1.8% | 300 ± 10 nM |
| [2-(1-adamantylimino)-3-n-propyl-1,3-thiazolidine-4-yl]-N-(4-fluorophenyl)-acetamide hydrochloride [KHG24811] | 71.82% | 94.8 ± 0.7% | 600 ± 40 nM |
